The values below come from article PMC2918522, “Characterization of the first beta-class carbonic anhydrase from an arthropod (Drosophila melanogaster) and phylogenetic analysis of beta-class carbonic anhydrases in invertebrates” (BMC Biochemistry, 2010).

In one series the target is T1, DmBCA (Drosophila melanogaster, UniProt Q9VHJ5).
T1 construct: gene CAHbeta; C-terminal thrombin site and His6; baculovirus/Sf9, purified from culture supernatant; thrombin treatment to remove tag; 28/27 kDa before/after thrombin; dimer
T1 sequence (Q9VHJ5 1-255): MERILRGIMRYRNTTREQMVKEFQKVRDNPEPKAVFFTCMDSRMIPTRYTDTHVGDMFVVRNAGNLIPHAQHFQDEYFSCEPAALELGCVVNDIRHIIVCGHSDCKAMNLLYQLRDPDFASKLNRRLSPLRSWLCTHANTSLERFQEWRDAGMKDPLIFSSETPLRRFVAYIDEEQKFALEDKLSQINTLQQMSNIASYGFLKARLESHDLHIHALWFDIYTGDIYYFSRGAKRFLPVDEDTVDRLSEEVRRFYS
The series can be described thus: stopped-flow CO2 hydration assay. The series is classed as biochemical.

Series [1] deals with the molecule itself. In words: dynamic light scattering + SEC; DLS (Zetasizer ZS): proteins exchanged to 50 mM Na2HPO4 pH 7.0, 100 mM NaCl, temperature scan 4-50°C, mass estimated from the hydrodynamic diameter with a globular protein standard curve; analytical gel filtration: Superdex200 10/300GL, 50 mM Na2HPO4, 650 mM NaCl pH 7.0, 20-30 μg protein per run.

As a reminder, the Ki is a measure of affinity in units of concentration, obtained from inhibition or displacement. High values mean weaker binding, low ones tighter binding. The molecule `S` [HS^-] returned a Ki at DmBCA of 1.01 mM. The same measure, in the same setting: then `O=NO` [NO2^-], with 28.6 mM.

`N#CS` [SCN^-] registered a Ki on DmBCA of 1.28 mM. Consider `OB(O)c1ccccc1` [Ph-B(OH)2], for which the Ki on DmBCA is 22.4 mM.

For the molecule `Cl` [Cl^-], the inhibition constant (Ki) on DmBCA was 0.97 mM.

In turn, `I` [I^-] showed a Ki at DmBCA of 1.18 mM.

For `O=C(O)O` [HCO3^-], the Ki on DmBCA stood at 26.9 mM.

Turning to `N#CO` [CNO^-], on DmBCA, the Ki worked out at 0.73 mM.

Molecule `NS(=O)(=O)O` [H2NSO3H] displayed an inhibitory constant (Ki) on DmBCA of 2.45 mM. This Ki lies about 3.4-fold higher than the previous one.

At DmBCA, `NS(N)(=O)=O` [H2NSO2NH2] registered a Ki of 0.15 mM. Still for that read-out and setting: to `Br` [Br^-] belongs 1.04 mM; to `O=S(O)O` [HSO3^-], 1.29 mM.

Regarding `O=S(=O)(O)O` [SO4^2-], at DmBCA, the Ki worked out at 1.36 mM. The Ki values of the last two molecules are within 1.5-fold of each other.

As for `O=[N+]([O-])O` [NO3^-], the affinity on DmBCA, expressed as Ki, was 43.7 mM. Against the preceding molecule, the Ki is about 32-fold higher.

`F` [F^-]: the Ki on DmBCA was found to be 0.8 mM.

B1: Drosophila melanogaster β-carbonic anhydrase (DmBCA) (enzyme, UniProt Q9VHJ5 1-255, looked up)
chain: MERILRGIMRYRNTTREQMVKEFQKVRDNPEPKAVFFTCMDSRMIPTRYTDTHVGDMFVVRNAGNLIPHAQHFQDEYFSCEPAALELGCVVNDIRHIIVCGHSDCKAMNLLYQLRDPDFASKLNRRLSPLRSWLCTHANTSLERFQEWRDAGMKDPLIFSSETPLRRFVAYIDEEQKFALEDKLSQINTLQQMSNIASYGFLKARLESHDLHIHALWFDIYTGDIYYFSRGAKRFLPVDEDTVDRLSEEVRRFYS
notes: cDNA from S2 cells; A thrombin cleavage site stands between DmBCA and the C-terminal His6 (primer R4 encodes LVPRGS-HHHHHH after the last residue); also called D. melanogaster β-CA; Drosophila β-CA; source: Sf9 insect cells (baculovirus), purified from the culture supernatant (Probond nickel-chelating resin)
In general, stoichiometry N refers to the number of molecules, sites or subunits per partner or assembly. As to B1, the “stoichiometry N” value in series [1] was 2.
